Experimental data from patent publication US12456194B2, “Methods for identifying and using cell behavior in drug screening and diagnosis” (Indiana University Research and Technology Corporation, priority 2020, dated 2025).

Columns and labels:
[1] = test system: B16F10 melanoma cell line; assay: 3D tumor culture T cell infiltration drug screen scored by neural network, B16F10; details: B16F10 melanoma cell line-based screen; library of 141 small molecule epigenetic modulators; averaging the scores of a total of 10 images; FIG. 6
Method: (§1) Once the predicted Rd is determined, the predicted Rd for each patient can be classified as depicted in Step 215 of FIG. 2. For example, Rd can be defined as high, medium, and low-survival groups by binning the Rd's by or into risk classifications or categories, such as low survival, medium survival and high survival. Low survival may mean the Rd>75% of TCGA SKCM patient dataset; medium survival may mean Rd=25%-75% of TCGA SKCM patient dataset; and high survival may mean Rd<25% of TCGA SKCM patient dataset. Each risk classification or category may be associated with a predetermined values, such as 0 for low survival (high risk), 1 for medium survival (medium risk), and 2 for high survival (low risk).
(§2) The trained neural network as described in FIG. 1 and FIG. 4 is transferred to 3D tumor culture dataset 305, a drug screening method and/or a companion diagnostic method 300 may be performing using the algorithms discussed above with respect to FIGS. 1, 2 and 4 to objectively quantify and predict/score the effectiveness of a drug or a treatment based on a particular type of TIL behavior within 3D tumor cultures or patent tumor tissue samples. For example, a library of 141 small molecule epigenetic modulators in 2 cancer cell lines (e.g., B16F10 melanoma and UN-KC6141 pancreatic cancer) were screened. […]

[2] = test system: UN-KC6141 pancreatic cancer cell line; assay: 3D tumor culture T cell infiltration drug screen scored by neural network, UN-KC6141; details: UN-KC6141 pancreatic cancer cell line-based screen; library of 141 small molecule epigenetic modulators; averaging the scores of a total of 10 images; FIG. 6
Method: as §1, §2

c1ccc([C@@H]2C[C@H]2NC2CCNCC2)cc1 [GSK-LSD1]
final score (T cell infiltration enhancement activity) [1]: highest score | final score (T cell infiltration enhancement activity) [2]: highest score
